According to US6737383B1, “Herbicidal oxadiazolidines” (priority 1999, dated 2004):

Assays:
smallflower flatsedge = assay: Test B flood test smallflower flatsedge; type: in vivo, Cyperus difformis
Outline: (§1)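 Plants were grown to the 2-leaf stage before treatment with test chemical, then held in a greenhouse for twelve to sixteen days. Injury was visually rated against untreated controls on a 0–10 scale, where 0 is no effect and 10 is complete control.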

blackgrass = assay: Test B pre/postemergence blackgrass; type: in vivo, Alopecurus myosuroides
Outline: (§2)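 Response is a visual 0-to-10 score relative to untreated plants, where 0 means no effect and 10 means complete control, taken twelve to sixteen days after application. Treatments went onto soil at planting and onto foliage of 1- to 4-leaf plants, using a surfactant-containing non-phytotoxic solvent.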

cocklebur = assay: Test B pre/postemergence cocklebur; type: in vivo, Xanthium strumarium
Outline: as §2

morningglory = assay: Test B pre/postemergence morningglory; type: in vivo, Ipomoea hederacea; details: for Plant response rating, Morningglory: scale of 0 to 10 where 0 is no effect and 10 is complete control
Outline: as §2

purple nutsedge = assay: Test B pre/postemergence purple nutsedge; type: in vivo, Cyperus rotundus; details: for Plant response rating, Nutsedge: scale of 0 to 10 where 0 is no effect and 10 is complete control
Outline: as §2

soybean = assay: Test B pre/postemergence soybean; type: in vivo, Glycine max; details: for Plant response rating, Soybean: scale of 0 to 10 where 0 is no effect and 10 is complete control
Outline: as §2

wild oat = assay: Test B pre/postemergence wild oat; type: in vivo, Avena fatua; details: for Plant response rating, Wild oats: scale of 0 to 10 where 0 is no effect and 10 is complete control
Outline: as §2

duck salad = assay: Test B flood test duck salad; type: in vivo, Heteranthera limosa
Outline: as §1

corn = assay: Test B pre/postemergence corn; type: in vivo, Zea mays
Outline: as §2

wheat = assay: Test B pre/postemergence wheat; type: in vivo, Triticum aestivum; details: for Plant response rating, Wheat: scale of 0 to 10 where 0 is no effect and 10 is complete control
Outline: as §2

giant foxtail = assay: Test B pre/postemergence giant foxtail; type: in vivo, Setaria faberii
Outline: as §2

surinam grass = assay: Test B pre/postemergence surinam grass; type: in vivo, Brachiaria decumbens
Outline: as §2

velvetleaf = assay: Test B pre/postemergence velvetleaf; type: in vivo, Abutilon theophrasti; details: for Plant response rating, Velvetleaf: scale of 0 to 10 where 0 is no effect and 10 is complete control
Outline: as §2

crabgrass = assay: Test B pre/postemergence crabgrass; type: in vivo, Digitaria sanguinalis
Outline: as §2

rape = assay: Test B pre/postemergence rape; type: in vivo, Brassica napus; details: for Plant response rating, Rape: scale of 0 to 10 where 0 is no effect and 10 is complete control
Outline: as §2

sugar beet = assay: Test B pre/postemergence sugar beet; type: in vivo, Beta vulgaris; details: for Plant response rating, Sugarbeets: scale of 0 to 10 where 0 is no effect and 10 is complete control
Outline: as §2

[1] = Rate 62 g/ha, flood test species, Pre-emergence, visual evaluation after twelve to sixteen days
[2] = Rate 125 g/ha, under heading Pre-emergence, flood test species, visual evaluation after twelve to sixteen days
[3] = Rate 250 g/ha, Pre-emergence (flood test species), scale 0 to 10, 0 is no effect, 10 is complete control
[4] = Rate 500 g/ha, Pre-emergence, flood test species, scale 0 to 10 (0 no effect, 10 complete control)
[5] = Postemergence, Rate 250 g/ha, scale 0 to 10
[6] = Postemergence, Rate 500 g/ha, scale of 0 to 10 where 0 is no effect and 10 is complete control
[7] = Preemergence, Rate 62 g/ha, scale of 0 to 10 where 0 is no effect and 10 is complete control
[8] = Preemergence, Rate 125 g/ha, scale of 0 to 10 where 0 is no effect and 10 is complete control
[9] = Preemergence, Rate 250 g/ha, scale 0 to 10, 0 is no effect, 10 is complete control
[10] = Preemergence, Rate 500 g/ha, scale 0 to 10, 0 is no effect, 10 is complete control
[11] = Rate 62 g/ha, Postemergence, scale 0 to 10, 0 no effect, 10 complete control
[12] = Rate 125 g/ha, Postemergence, scale 0 to 10, 0 is no effect, 10 is complete control

With `CC[Si](C)(C)Cn1c(=O)on(C(=O)N(c2ccc(F)cc2)C(C)C)c1=O` [Compound 459] the “Plant response rating, S. Flatsedge (0 to 10 scale, 0 is no effect, 10 is complete control)” value (smallflower flatsedge; [1]) was 0, the “S. Flatsedge plant response rating (0 to 10 scale, 0 is no effect, 10 is complete control)” value (smallflower flatsedge; [2]) was 0 and the “S. Flatsedge plant response rating” value (smallflower flatsedge; [3]) was 0. The “S. Flatsedge plant response rating” value (smallflower flatsedge; [4]) was 0, the “Blackgrass plant response rating” value (blackgrass; [5]) was 8 and the “Blackgrass plant response rating” value (blackgrass; [6]) was 8. The “Plant response rating, Blackgrass” value (blackgrass; [7]) was 0, the “Plant response rating, Blackgrass” value (blackgrass; [8]) was 0 and the “Blackgrass plant response rating” value (blackgrass; [9]) was 5. For the same compound, the “Blackgrass plant response rating” value (blackgrass; [10]) was 6, the “Blackgrass plant response rating” value (blackgrass; [11]) was 0 and the “Blackgrass plant response rating” value (blackgrass; [12]) was 1. For the same compound, the “Cocklebur plant response rating” value (cocklebur; [5]) was 0, the “Cocklebur plant response rating” value (cocklebur; [6]) was 0 and the “Plant response rating, Cocklebur” value (cocklebur; [7]) was 0. For the same compound, the “Plant response rating, Cocklebur” value (cocklebur; [8]) was 0, the “Cocklebur plant response rating” value (cocklebur; [9]) was 0 and the “Cocklebur plant response rating” value (cocklebur; [10]) was 0. The “Cocklebur plant response rating” value (cocklebur; [11]) was 0, the “Cocklebur plant response rating” value (cocklebur; [12]) was 0 and the “Plant response rating, Morningglory” value (morningglory; Preemergence, Rate 62 g/ha) was 0. The “Plant response rating, Morningglory” value (morningglory; Preemergence, Rate 125 g/ha) was 0, the “Morningglory plant response rating” value (morningglory; [9]) was 0 and the “Morningglory plant response rating” value (morningglory; [10]) was 0. The “Morningglory plant response rating” value (morningglory; [11]) was 6, the “Morningglory plant response rating” value (morningglory; [12]) was 8 and the “Nutsedge plant response rating” value (purple nutsedge; [5]) was 0. The “Plant response rating, Nutsedge” value (purple nutsedge; Preemergence, Rate 62 g/ha) was 0, the “Plant response rating, Nutsedge” value (purple nutsedge; Preemergence, Rate 125 g/ha) was 0 and the “Nutsedge plant response rating” value (purple nutsedge; [9]) was 0. For the same compound, the “Nutsedge plant response rating” value (purple nutsedge; [10]) was 0, the “Nutsedge plant response rating” value (purple nutsedge; [11]) was 0 and the “Nutsedge plant response rating” value (purple nutsedge; [12]) was 0. For the same compound, the “Soybean plant response rating” value (soybean; [5]) was 6, the “Plant response rating, Soybean” value (soybean; Preemergence, Rate 62 g/ha) was 0 and the “Plant response rating, Soybean” value (soybean; Preemergence, Rate 125 g/ha) was 0. The “Soybean plant response rating” value (soybean; [9]) was 0, the “Soybean plant response rating” value (soybean; [10]) was 0 and the “Soybean plant response rating” value (soybean; [11]) was 3. For the same compound, the “Soybean plant response rating” value (soybean; [12]) was 3, the “Wild oats plant response rating” value (wild oat; [5]) was 0 and the “Plant response rating, Wild oats” value (wild oat; Preemergence, Rate 62 g/ha) was 0. For the same compound, the “Plant response rating, Wild oats” value (wild oat; Preemergence, Rate 125 g/ha) was 0, the “Wild oats plant response rating” value (wild oat; [9]) was 0 and the “Wild oats plant response rating” value (wild oat; [10]) was 0. The “Wild oats plant response rating” value (wild oat; [11]) was 0, the “Wild oats plant response rating” value (wild oat; [12]) was 0 and the “Plant response rating, Ducksalad (0 to 10 scale, 0 is no effect, 10 is complete control)” value (duck salad; [1]) was 0. For the same compound, the “Ducksalad plant response rating (0 to 10 scale, 0 is no effect, 10 is complete control)” value (duck salad; [2]) was 0, the “Ducksalad plant response rating” value (duck salad; [3]) was 0 and the “Ducksalad plant response rating” value (duck salad; [4]) was 0. For the same compound, the “Corn plant response rating” value (corn; [5]) was 0, the “Corn plant response rating” value (corn; [6]) was 0 and the “Plant response rating, Corn” value (corn; [7]) was 0. For the same compound, the “Plant response rating, Corn” value (corn; [8]) was 0, the “Corn plant response rating” value (corn; [9]) was 0 and the “Corn plant response rating” value (corn; [10]) was 0. For the same compound, the “Corn plant response rating” value (corn; [11]) was 0, the “Corn plant response rating” value (corn; [12]) was 0 and the “Wheat plant response rating” value (wheat; [5]) was 0. The “Plant response rating, Wheat” value (wheat; Preemergence, Rate 62 g/ha) was 0, the “Plant response rating, Wheat” value (wheat; Preemergence, Rate 125 g/ha) was 0 and the “Wheat plant response rating” value (wheat; [9]) was 0. The “Wheat plant response rating” value (wheat; [10]) was 0, the “Wheat plant response rating” value (wheat; [11]) was 0 and the “Wheat plant response rating” value (wheat; [12]) was 0. The “Giant foxtail plant response rating” value (giant foxtail; [5]) was 2, the “Giant foxtail plant response rating” value (giant foxtail; [6]) was 5 and the “Plant response rating, Giant foxtail” value (giant foxtail; [7]) was 8. The “Plant response rating, Giant foxtail” value (giant foxtail; [8]) was 9, the “Giant foxtail plant response rating” value (giant foxtail; [9]) was 10 and the “Giant foxtail plant response rating” value (giant foxtail; [10]) was 10. For the same compound, the “Giant foxtail plant response rating” value (giant foxtail; [11]) was 0, the “Giant foxtail plant response rating” value (giant foxtail; [12]) was 0 and the “B. signalgrass plant response rating” value (surinam grass; Postemergence, Rate 250 g/ha, scale 0 to 10, 0 no effect, 10 complete control) was 0. The “B. signalgrass plant response rating” value (surinam grass; [6]) was 0, the “Plant response rating, B. signalgrass” value (surinam grass; [7]) was 0 and the “Plant response rating, B. signalgrass” value (surinam grass; [8]) was 0. The “B. signalgrass plant response rating” value (surinam grass; [9]) was 1, the “B. signalgrass plant response rating” value (surinam grass; [10]) was 1 and the “B. signalgrass plant response rating” value (surinam grass; [11]) was 0. The “B. signalgrass plant response rating” value (surinam grass; [12]) was 0, the “Velvetleaf plant response rating” value (velvetleaf; [5]) was 0 and the “Plant response rating, Velvetleaf” value (velvetleaf; Preemergence, Rate 62 g/ha) was 0. The “Plant response rating, Velvetleaf” value (velvetleaf; Preemergence, Rate 125 g/ha) was 0, the “Velvetleaf plant response rating” value (velvetleaf; [9]) was 0 and the “Velvetleaf plant response rating” value (velvetleaf; [10]) was 0. The “Velvetleaf plant response rating” value (velvetleaf; [11]) was 0, the “Velvetleaf plant response rating” value (velvetleaf; [12]) was 0 and the “Crabgrass plant response rating” value (crabgrass; [5]) was 5. For the same compound, the “Crabgrass plant response rating” value (crabgrass; [6]) was 8, the “Plant response rating, Crabgrass” value (crabgrass; [7]) was 5 and the “Plant response rating, Crabgrass” value (crabgrass; [8]) was 7. The “Crabgrass plant response rating” value (crabgrass; [9]) was 9, the “Crabgrass plant response rating” value (crabgrass; [10]) was 10 and the “Crabgrass plant response rating” value (crabgrass; [11]) was 0. The “Crabgrass plant response rating” value (crabgrass; [12]) was 1, the “Rape plant response rating” value (rape; [5]) was 0 and the “Plant response rating, Rape” value (rape; Preemergence, Rate 62 g/ha) was 0. For the same compound, the “Plant response rating, Rape” value (rape; Preemergence, Rate 125 g/ha) was 0, the “Rape plant response rating” value (rape; [9]) was 0 and the “Rape plant response rating” value (rape; [10]) was 0. For the same compound, the “Rape plant response rating” value (rape; [11]) was 0, the “Rape plant response rating” value (rape; [12]) was 0 and the “Sugarbeets plant response rating” value (sugar beet; [5]) was 0. For the same compound, the “Plant response rating, Sugarbeets” value (sugar beet; Preemergence, Rate 62 g/ha) was 0, the “Plant response rating, Sugarbeets” value (sugar beet; Preemergence, Rate 125 g/ha) was 0 and the “Sugarbeets plant response rating” value (sugar beet; [9]) was 0. The “Sugarbeets plant response rating” value (sugar beet; [10]) was 0, the “Sugarbeets plant response rating” value (sugar beet; [11]) was 0 and the “Sugarbeets plant response rating” value (sugar beet; [12]) was 0.
